Assay results reported in PubChem BioAssay AID330 (DTP/NCI, 2004).
“And” between values parts separate entries of the source, which are not always exact repeats. Equal values may be shown once. Inconclusive results and toxic doses are left out. The calls were made as follows: active = survival T/C of 150% or more; inactive = T/C below 125% in these data. Peptide text beside a SMILES is read from it. * marks the point of attachment. Cbz = O=C(OCc1ccccc1)*

Tested on: P388 leukemia ip, CD2F1 mice, survival T/C
Assay: NCI In Vivo Anticancer Drug Screen. Data for tumor model P388 Leukemia (intraperitoneal) in CD2F1 (CDF1) mice
Settings: endpoint: median survival time, higher = longer survival
Procedure, shortened: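 Mice carrying the transplanted tumor received test compound or vehicle. Survival was recorded in each group, and the value is the treated-group measurement divided by that of the vehicle-treated control group.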

[1] = dose: 25.0 mg/kg/injection, schedule: Q01DX009 (ip), vehicle: saline
[2] = dose: 50.0 mg/kg/injection, schedule: Q01DX009 (ip), vehicle: saline
[3] = dose: 100.0 mg/kg/injection, schedule: Q01DX009 (ip), vehicle: saline
[4] = dose: 200.0 mg/kg/injection, schedule: Q01DX009 (ip), vehicle: saline
[5] = dose: 60.0 mg/kg/injection, schedule: Q01DX005 (ip), vehicle: Klucel (hydroxypropylcellulose) (HPC)
[6] = dose: 120.0 mg/kg/injection, schedule: Q01DX005 (ip), vehicle: Klucel (hydroxypropylcellulose) (HPC)
[7] = dose: 240.0 mg/kg/injection, schedule: Q01DX005 (ip), vehicle: Klucel (hydroxypropylcellulose) (HPC)
[8] = dose: 25.0 mg/kg/injection, schedule: Q01DX009 (ip), vehicle: saline with Tween-80
[9] = dose: 50.0 mg/kg/injection, schedule: Q01DX009 (ip), vehicle: saline with Tween-80
[10] = dose: 100.0 mg/kg/injection, schedule: Q01DX009 (ip), vehicle: saline with Tween-80
[11] = dose: 200.0 mg/kg/injection, schedule: Q01DX009 (ip), vehicle: saline with Tween-80
[12] = dose: 60.0 mg/kg/injection, schedule: Q01DX005 (ip), vehicle: saline with Tween-80
[13] = dose: 120.0 mg/kg/injection, schedule: Q01DX005 (ip), vehicle: saline with Tween-80
[14] = dose: 12.5 mg/kg/injection, schedule: Q01DX005 (ip), vehicle: Klucel (hydroxypropylcellulose) (HPC)
[15] = dose: 25.0 mg/kg/injection, schedule: Q01DX005 (ip), vehicle: Klucel (hydroxypropylcellulose) (HPC)
[16] = dose: 50.0 mg/kg/injection, schedule: Q01DX005 (ip), vehicle: Klucel (hydroxypropylcellulose) (HPC)

Measured: T/C

COc1cc(/C=C/C(=O)NCCc2ccc(OCc3ccccc3)c(OC)c2)ccc1OCc1ccccc1
inactive: dose: 100.0 mg/kg/injection, schedule: Q01DX001 (ip), vehicle: saline with Tween-80 88 % of control | dose: 200.0 mg/kg/injection, schedule: Q01DX001 (ip), vehicle: saline with Tween-80 89 % of control | dose: 400.0 mg/kg/injection, schedule: Q01DX001 (ip), vehicle: saline with Tween-80 90 % of control

N#CCC(=O)NCc1ccncc1
inactive: [1] 110 % of control | [2] 100 % of control | [3] 108 % of control | [4] 110 % of control | dose: 400.0 mg/kg/injection, schedule: Q01DX009 (ip), vehicle: saline 101 % of control

COC(=O)C1CCCN1C(=O)C(CCCCNC(=O)OCc1ccccc1)NC(=O)OCc1ccccc1 (configuration not stated) (Cbz-Lys(Cbz)-Pro-OMe; configuration not given here)
inactive: dose: 50.0 mg/kg/injection, schedule: Q01DX005 (ip), vehicle: saline 106 % of control | dose: 100.0 mg/kg/injection, schedule: Q01DX005 (ip), vehicle: saline 103 % of control | dose: 200.0 mg/kg/injection, schedule: Q01DX005 (ip), vehicle: saline 105 % of control

C=C1C2CCC3C4(C)CCCC(C)(C(=O)O)C4CCC3(C2)C1O (configuration not stated)
inactive: dose: 15.0 mg/kg/injection, schedule: Q01DX005 (ip), vehicle: Klucel (hydroxypropylcellulose) (HPC) 100 % of control | dose: 30.0 mg/kg/injection, schedule: Q01DX005 (ip), vehicle: Klucel (hydroxypropylcellulose) (HPC) 100 % of control | [5] 99 % of control | [6] 100 % of control

COc1cccc(C2c3cc4c(cc3OC(C)(O)C2C)OCO4)c1OC (configuration not stated)
inactive: [5] 103 % of control | [6] 97 % of control | [7] 95 % of control

[Se]=P(N1CC1)(N1CC1)N1CC1
active: dose: 27.5 mg/kg/injection, schedule: Q01DX001 (ip), vehicle: Klucel (hydroxypropylcellulose) (HPC) 155 % of control
inactive: dose: 13.75 mg/kg/injection, schedule: Q01DX001 (ip), vehicle: Klucel (hydroxypropylcellulose) (HPC) 119 % of control

O=C(COc1ccc2c(=O)c3ccccc3oc2c1)N/N=C/c1ccc(N(CCCl)CCCl)cc1
inactive: [5] 97 % of control | [6] 95 % of control | [7] 94 % of control

c1cnc2c(c1)Nc1cnncc1S2
inactive: dose: 100.0 mg/kg/injection, schedule: Q04DX002 (ip), vehicle: Klucel (hydroxypropylcellulose) (HPC) 98 % of control | dose: 200.0 mg/kg/injection, schedule: Q04DX002 (ip), vehicle: Klucel (hydroxypropylcellulose) (HPC) 100 % of control | dose: 400.0 mg/kg/injection, schedule: Q04DX002 (ip), vehicle: Klucel (hydroxypropylcellulose) (HPC) 92 % of control

CCC(=O)O[C@H]1CC[C@H]2[C@@H]3[C@@H](C)CC4=CC(=O)CC[C@]4(C)[C@H]3CC[C@]12C
inactive: dose: 100.0 mg/kg/injection, schedule: Q04DX003 (ip), vehicle: saline with Tween-80 90 % of control | dose: 200.0 mg/kg/injection, schedule: Q04DX003 (ip), vehicle: saline with Tween-80 90 % of control | dose: 400.0 mg/kg/injection, schedule: Q04DX003 (ip), vehicle: saline with Tween-80 90 % of control

CCCCC/C(C=C(C#N)C#N)=C/c1ccccc1
inactive: [8] 103 % of control and 86 % of control | [9] 100 % of control and 123 % of control and 91 % of control | [10] 119 % of control and 92 % of control | [11] 111 % of control

c1ccc(N2CCN(C(c3cccs3)N3CCN(c4ccccc4)CC3)CC2)cc1
inactive: [12] 100 % of control | [13] 99 % of control

CN(CCC#N)c1ccc(/C=C(\C#N)C(N)=O)cc1
inactive: dose: 20.0 mg/kg/injection, schedule: Q01DX009 (ip), vehicle: saline with Tween-80 101 % of control | [8] 97 % of control | dose: 40.0 mg/kg/injection, schedule: Q01DX009 (ip), vehicle: saline with Tween-80 89 % of control | [9] 98 % of control | [10] 97 % of control | dose: 160.0 mg/kg/injection, schedule: Q01DX009 (ip), vehicle: saline with Tween-80 90 % of control | [11] 97 % of control

C/C=C1/CN2CCC34c5ccccc5N(C(C)=O)C3C(CO)C1CC24 (configuration not stated)
inactive: dose: 11.25 mg/kg/injection, schedule: Q01DX009 (ip), vehicle: saline with Tween-80 106 % of control | dose: 22.5 mg/kg/injection, schedule: Q01DX009 (ip), vehicle: saline with Tween-80 100 % of control | dose: 45.0 mg/kg/injection, schedule: Q01DX009 (ip), vehicle: saline with Tween-80 102 % of control | dose: 90.0 mg/kg/injection, schedule: Q01DX009 (ip), vehicle: saline with Tween-80 100 % of control

COP1(OC)(OC)OC(C)=C(C)O1
inactive: [2] 86 % of control | [3] 94 % of control | [4] 86 % of control

O=C1CSC(=S)N1c1ccc(Cl)c([N+](=O)[O-])c1
inactive: [1] 101 % of control | [2] 104 % of control and 111 % of control and 92 % of control | [3] 99 % of control and 100 % of control | dose: 100.0 mg/kg/injection, schedule: Q01DX009 (ip), vehicle: suspension in saline 117 % of control | [4] 102 % of control and 108 % of control | dose: 200.0 mg/kg/injection, schedule: Q01DX009 (ip), vehicle: suspension in saline 86 % of control

O=Cc1ccccc1/C=C/C(=O)/C=C/c1ccccc1C=O
inactive: [14] 105 % of control | [15] 105 % of control | [16] 107 % of control and 110 % of control

Nc1nc2c(ncn2C2OC(CO)C(O)C2O)c(=O)[nH]1.[Cl-].[Cl-].[NH2-].[NH2-].[Pt+4] (configuration not stated)
active: dose: 8.0 mg/kg/injection, schedule: Q01DX009 (ip), vehicle: saline 172 % of control and 178 % of control | dose: 16.0 mg/kg/injection, schedule: Q01DX009 (ip), vehicle: saline 216 % of control and 238 % of control
inactive: dose: 2.0 mg/kg/injection, schedule: Q01DX009 (ip), vehicle: saline 118 % of control | dose: 4.0 mg/kg/injection, schedule: Q01DX009 (ip), vehicle: saline 122 % of control | dose: 32.0 mg/kg/injection, schedule: Q01DX009 (ip), vehicle: saline 93 % of control

O=c1[nH]nc(-c2ccccc2)c2c(/C=C/c3ccccc3)onc12
inactive: [12] 100 % of control | [13] 98 % of control

COc1ccc2c(c1)[C@@H](NC(C)=O)CCc1cc(OC)c(OC)c(OC)c1-2
inactive: dose: 0.25 mg/kg/injection, schedule: Q01DX005 (ip), vehicle: saline 100 % of control and 108 % of control | dose: 0.5 mg/kg/injection, schedule: Q01DX005 (ip), vehicle: saline 102 % of control and 105 % of control | dose: 1.0 mg/kg/injection, schedule: Q01DX005 (ip), vehicle: saline 104 % of control and 108 % of control | dose: 2.0 mg/kg/injection, schedule: Q01DX005 (ip), vehicle: saline 110 % of control and 96 % of control | dose: 4.0 mg/kg/injection, schedule: Q01DX005 (ip), vehicle: saline 98 % of control and 108 % of control

CCCCN(CC(O)c1cc2c(c3ccccc13)CCCC2)c1ccc(OC)cc1 (configuration not stated)
inactive: dose: 50.0 mg/kg/injection, schedule: Q01DX005 (ip), vehicle: saline with Tween-80 115 % of control | dose: 100.0 mg/kg/injection, schedule: Q01DX005 (ip), vehicle: saline with Tween-80 101 % of control | dose: 200.0 mg/kg/injection, schedule: Q01DX005 (ip), vehicle: saline with Tween-80 101 % of control

Cc1cccc(C2(Br)C(=O)c3ccccc3C2=O)c1
inactive: dose: 100.0 mg/kg/injection, schedule: Q04DX002 (ip), vehicle: saline 102 % of control | dose: 200.0 mg/kg/injection, schedule: Q04DX002 (ip), vehicle: saline 103 % of control | dose: 400.0 mg/kg/injection, schedule: Q04DX002 (ip), vehicle: saline 102 % of control

COc1ccc(S(N)(=O)=O)cc1C(=O)N1CCN2CCCC2C1 (configuration not stated)
inactive: dose: 60.0 mg/kg/injection, schedule: Q01DX005 (ip), vehicle: saline 100 % of control | dose: 120.0 mg/kg/injection, schedule: Q01DX005 (ip), vehicle: saline 100 % of control | dose: 240.0 mg/kg/injection, schedule: Q01DX005 (ip), vehicle: saline 94 % of control

Cc1cc(O)c(C(c2ccc3c(c2)OCO3)c2c(O)cc(C)[nH]c2=O)c(=O)[nH]1
inactive: [9] 92 % of control | [10] 98 % of control | [11] 95 % of control

CC(=O)OC1CCC2(C)C(=CCC3C2CCC2(C)C3CC3ON=C(C)C32)C1 (configuration not stated)
inactive: [14] 101 % of control | [15] 99 % of control | [16] 98 % of control | dose: 100.0 mg/kg/injection, schedule: Q01DX005 (ip), vehicle: Klucel (hydroxypropylcellulose) (HPC) 86 % of control | dose: 200.0 mg/kg/injection, schedule: Q01DX005 (ip), vehicle: Klucel (hydroxypropylcellulose) (HPC) 86 % of control
